Experimental data from patent US20240307420A1, “IMPROVED METHODS FOR THE USE OF PSYCHEDELICS” (TRYP Therapeutics Inc., priority 2021, published 2024).
Where “and” joins values, the source holds several entries; their conditions need not be identical. Equal values may be shown once.

Assays:
rats [1] = assay: Hot Plate assay (HPA) withdrawal latency in formalin-induced rat pain model; assay type: in vivo; conditions: 52.5° C. hot plate; single 10 mg/kg IV administration
From the text: Chronic pain in rats was induced by injection of formalin into the hind paw. The rats subsequently were intravenously administered psilocybin, and assessed for changes in pain perception over an extended period of time. The formalin pain model is a translational animal model for chronic nociplastic pain (Vanini G., Sleep 2016; 39(1): 133-42), including fibromyalgia, phantom limb pain or complex regional pain syndrome. In the formalin pain model, in addition to experiencing extra pain in the formalin-injected paw, the animal experiences increased pain perception (i.e., hyperalgesia) in extremities not injected with formalin (e.g., the contra-lateral hind paw compared to the one injected with formalin). The pain perception was measured in the contra-lateral paw to assess the potential benefit of psychedelics in nociplastic pain disorders. […]
The second pain measurement was based on the Hot Plate Assay (HPA), which measures the withdrawal latency at temperatures that register a painful response (i.e., thermal hyperalgesia). […] Once heated, each animal was placed in cylindrical tube on the hot plate and the latency to lick a hind paw or observed overt escape behavior (e.g., attempt to jump out of cylinder) was recorded (Ingram et al., Neruopsychopharmacology 2007; 32(3):600-6; Gunn et al., J Pain 2011; 12(2):222-7; Hestehave et al., Lab Anim 2016; 51(3):264-72). […]

rats [2] = assay: Von Frey assay (VFA) withdrawal threshold in formalin-induced rat pain model; assay type: in vivo; conditions: contra-lateral paw; single 10 mg/kg IV administration
From the text: Chronic pain in rats was induced by injection of formalin into the hind paw. The rats subsequently were intravenously administered psilocybin, and assessed for changes in pain perception over an extended period of time. The formalin pain model is a translational animal model for chronic nociplastic pain (Vanini G., Sleep 2016; 39(1): 133-42), including fibromyalgia, phantom limb pain or complex regional pain syndrome. In the formalin pain model, in addition to experiencing extra pain in the formalin-injected paw, the animal experiences increased pain perception (i.e., hyperalgesia) in extremities not injected with formalin (e.g., the contra-lateral hind paw compared to the one injected with formalin). The pain perception was measured in the contra-lateral paw to assess the potential benefit of psychedelics in nociplastic pain disorders. Reduction in pain perception and the duration of pain reduction were examined following intravenous bolus administration of 10 mg/kg psilocybin, administered over 3 minutes.
Two types of pain perception were measured. First, the Von Frey assay (VFA) was used to measure pain due to pressure exerted on the extremity (i.e., mechanical allodynia). Specifically. […] The minimum amount of force required to evoke a paw withdrawal response in each trial was determined to be the minimum withdrawal threshold for that animal trial. […]

rats [3] = assay: Head twitching response in unrestrained rats prior to, during and after 60 minute infusion (separate study); assay type: in vivo; conditions: 10 mg/kg over 60 minutes IV
Protocol: In a separate study, unrestrained rats were infused with 10 mg/kg psilocybin over a 60 minute period and head twitching response (HTR) was recorded prior to during and after IV administration. HTR was consistently observed in all tested rats, within 5 minutes after initiation of the infusion, and persisted during the 60-minute infusion period. HTR was discontinued in the animals soon after the termination of the infusion, generally within 30 minutes after the termination of the infusion. The results of the HTR supported the more rapid achievement of the dissociative or psychedelic state, coincident with the rise in systemic plasma psilocin levels, and rapid exit from the dissociative or psychedelic state after the termination of infusion (e.g., as assessed in Example 1).

rats [4] = assay: Head twitching response (HTR) after one-hour intravenous infusion, video recording; assay type: in vivo, Sprague Dawley rats; conditions: for Time after termination of infusion up to which head twitching was observed: after one hour 10 mg/kg IV infusion
Protocol: To assess the pharmacodynamics (PD) of intravenously infused psychedelics, animal head-twitching was recorded as an indicator of achieving the dissociative state. Head twitching response (HTR) is used as a surrogate PD marker for the animals achieving or being in the dissociative or psychedelic state (for example, as described in Zhuk et al., Toxins 2015, 7, 1018-1029; Halberstadt et al., J Psychopharmacol. 2011 25(11): 1548-1561). HTR was also used to determine when the end of the dissociative state occurred following discontinuation of the IV infusion.
To assess HTR, a video monitoring system was used to record the animals in this study from discontinuation of the infusion through to the terminal sampling time point (1-hour post infusion). A camera was positioned such that the animals were visible from above. The recording was saved for review and the time of the observed head-twitching behavior, the duration of the observed behavior, and any additional atypical observations were documented.
The number of head-twitching events observed within the 60 minute time period after the one hour intravenous infusion of each of the 3 rats receiving psilocin or psilocybin, were determined from the video recordings. […] Upon termination of the IV infusion of either psilocin or psilocybin, head twitching activity subsided within 50 minutes, supporting the rapid termination of the dissociative or psychedelic, compared to previously reported termination of the dissociative state after an oral administration of psilocybin.

[5] = single oral administration of psilocybin at 0.225 mg/kg; cited from earlier work
[6] = Plasma psilocin pharmacokinetics during and after one-hour intravenous infusion of psilocin or psilocybin; conditions: for AUC(0-t): AUCT; for concentration at 0.25 h / concentration at 0.5 h / concentration at 1 h / concentration at 2 h / concentration at 4 h / concentration at 6 h / concentration at 8 h: Plasma concentration of psilocin
[7] = plasma psilocin, individual rats, 10 mg/kg psilocin one-hour IV infusion

Question: Which results are given for `CN(C)CCc1c[nH]c2cccc(OP(=O)(O)O)c12` [psilocybin, [3-(2-dimethylaminoethyl)-1H-indol-4-yl] dihydrogen phosphate]?
Answer: Duration of improved pain sensitivity response (HPA withdrawal latency) compared to saline control (rats [1]): at least 4 weeks; Duration of statistically significant increase in VFA withdrawal threshold (rats [2]): 3 weeks; Time to discontinuation of head twitching response after termination of the infusion (rats [3]): ≤ 30 min; Time to head twitching response after initiation of the infusion (rats [3]; all tested rats): ≤ 5 min; Time after termination of infusion up to which head twitching was observed (rats [4]): up to 50 minutes; Average peak concentration of psilocin in plasma [5]: 8.2+/−2.8 ng psilocin/ml plasma; Time of peak plasma levels of psilocin [5]: 105 ± 37 min

Question: What does the source list for `CN(C)CCc1c[nH]c2cccc(O)c12` [psilocin, 4-hydroxy-N,N-dimethyltryptamine]?
Answer: Plasma concentration of psilocin ([6]; individual rats, 10 mg/kg psilocin one-hour IV infusion, sampling time 0.25 h): 1031.8 ng/mL and 982.7 ng/mL; Plasma concentration of psilocin ([6]; individual rats, 10 mg/kg psilocin one-hour IV infusion, sampling time 0.5 h): 1731.6 ng/mL and 1489.3 ng/mL; Plasma concentration of psilocin ([6]; individual rats, 10 mg/kg psilocin one-hour IV infusion, sampling time 1 h): 2159.5 ng/mL and 1623.2 ng/mL; Plasma concentration of psilocin ([6]; individual rats, 10 mg/kg psilocin one-hour IV infusion, sampling time 2 h): 965.6 ng/mL and 740.4 ng/mL; Plasma concentration of psilocin ([6]; individual rats, 10 mg/kg psilocin one-hour IV infusion, sampling time 4 h): 249.1 ng/mL and 231.7 ng/mL; Plasma concentration of psilocin ([6]; individual rats, 10 mg/kg psilocin one-hour IV infusion, sampling time 6 h): 80.2 ng/mL and 59.6 ng/mL; Plasma concentration of psilocin ([6]; individual rats, 10 mg/kg psilocin one-hour IV infusion, sampling time 8 h): 22.5 ng/mL and 26.8 ng/mL; Tmax ([6]; male, Sprague Dawley, rat, plasma, iv, 10 mg/kg): 1 h; AUC(0-t) ([6]; male, Sprague Dawley, rat, plasma, iv, 10 mg/kg, plasma psilocin, individual rats, 10 mg/kg psilocin one-hour IV infusion): 3550 ng·h/mL; AUC(0-t) ([6]; male, Sprague Dawley, rat, plasma, iv, 10 mg/kg, plasma psilocin, mean of 3 rats, 10 mg/kg psilocin one-hour IV infusion): 3980 ng·h/mL; Cmax ([6]; male, Sprague Dawley, rat, plasma, iv, 10 mg/kg, Cmax, plasma psilocin, individual rats, 10 mg/kg psilocin one-hour IV infusion): 1610 ng/mL; Cmax ([6]; male, Sprague Dawley, rat, plasma, iv, 10 mg/kg, Cmax, plasma psilocin, mean of 3 rats, 10 mg/kg psilocin one-hour IV infusion): 1800 ng/mL; concentration at 0.25 h ([6]; male, Sprague Dawley, rat, plasma, iv, 10 mg/kg, individual rats, 10 mg/kg psilocin one-hour IV infusion, sampling time 0.25 h): 1070 ng/mL; concentration at 0.5 h ([6]; male, Sprague Dawley, rat, plasma, iv, 10 mg/kg, individual rats, 10 mg/kg psilocin one-hour IV infusion, sampling time 0.5 h): 1510 ng/mL; concentration at 1 h ([6]; male, Sprague Dawley, rat, plasma, iv, 10 mg/kg, individual rats, 10 mg/kg psilocin one-hour IV infusion, sampling time 1 h): 1610 ng/mL; concentration at 2 h ([6]; male, Sprague Dawley, rat, plasma, iv, 10 mg/kg, individual rats, 10 mg/kg psilocin one-hour IV infusion, sampling time 2 h): 714 ng/mL; concentration at 4 h ([6]; male, Sprague Dawley, rat, plasma, iv, 10 mg/kg, individual rats, 10 mg/kg psilocin one-hour IV infusion, sampling time 4 h): 164 ng/mL; concentration at 6 h ([6]; male, Sprague Dawley, rat, plasma, iv, 10 mg/kg, individual rats, 10 mg/kg psilocin one-hour IV infusion, sampling time 6 h): 47.7 ng/mL; concentration at 8 h ([6]; male, Sprague Dawley, rat, plasma, iv, 10 mg/kg, individual rats, 10 mg/kg psilocin one-hour IV infusion, sampling time 8 h): 17.3 ng/mL; concentration at 0.25 h ([6]; male, Sprague Dawley, rat, plasma, iv, 10 mg/kg, mean of 3 rats, 10 mg/kg psilocin one-hour IV infusion, sampling time 0.25 h): 1030 ng/mL; concentration at 0.5 h ([6]; male, Sprague Dawley, rat, plasma, iv, 10 mg/kg, mean of 3 rats, 10 mg/kg psilocin one-hour IV infusion, sampling time 0.5 h): 1580 ng/mL; concentration at 1 h ([6]; male, Sprague Dawley, rat, plasma, iv, 10 mg/kg, mean of 3 rats, 10 mg/kg psilocin one-hour IV infusion, sampling time 1 h): 1800 ng/mL; concentration at 2 h ([6]; male, Sprague Dawley, rat, plasma, iv, 10 mg/kg, mean of 3 rats, 10 mg/kg psilocin one-hour IV infusion, sampling time 2 h): 807 ng/mL; concentration at 4 h ([6]; male, Sprague Dawley, rat, plasma, iv, 10 mg/kg, mean of 3 rats, 10 mg/kg psilocin one-hour IV infusion, sampling time 4 h): 215 ng/mL; concentration at 6 h ([6]; male, Sprague Dawley, rat, plasma, iv, 10 mg/kg, mean of 3 rats, 10 mg/kg psilocin one-hour IV infusion, sampling time 6 h): 62.5 ng/mL; concentration at 8 h ([6]; male, Sprague Dawley, rat, plasma, iv, 10 mg/kg, mean of 3 rats, 10 mg/kg psilocin one-hour IV infusion, sampling time 8 h): 22.2 ng/mL; AUCT [6, 7]: 4656.4 ng·h/mL and 3741.6 ng·h/mL; Cmax [6, 7]: 2159.5 ng/mL and 1623.2 ng/mL; Rats in which head-twitching was observed (rats [4]; 60 minute period after one hour 10 mg/kg IV infusion): 2 of 3; Time after termination of infusion up to which head twitching was observed (rats [4]): ≤ 16 min
